# Reference: patent publication US9057725B2, “Composition for diagnosing, treating, and preventing liver disease” (SNU R&DB Foundation, priority 2010, dated 2015)
# Entries after “also recorded” stand apart in the source; their conditions may differ.
# Columns and labels:
# TM4SF5 expression [1] = experiment: TGFβ mediated TM4SF5 expression in Chang cells infected with Smad adenoviruses with AG1478; assay type: cell-based, human; conditions: group treated with Smad2 and Smad4 adenoviruses, AG1478 1 hour before TGFβ, 24 hours
# Method: In addition, Chang cells were infected with Smad2, Smad3, and Smad4 adenoviruses for 24 hours, followed by serum starvation for 24 hours. After serum starvation, the cells were treated with AG1478 1 hour before the treatment of TGFβ in order to inhibit EGFR signaling. After the treatment of TGFβ, the cells were further cultured for 24 more hours. Then, the protein in the cell extract was quantified, followed by Western blotting. As a result, it was confirmed that TGFβ mediated TM4SF5 expression was reduced by AG1478 in the group treated with Smad2 and Smad4 adenoviruses.
# TM4SF5 expression [2] = experiment: TM4SF5 expression mediated by conditioned medium of LX2 cells in AML12 cells with AG1478; assay type: cell-based, mouse; conditions: AG1478 100 nM, 24 hours
# Method: Particularly, one hour before the treatment of conditioned medium of LX2 cells to AML12 cells, AG1478 (100 nM) was added to the medium to inhibit EGFR kinase activity, leading to the suppression of EGFR signaling, which was then treated to AML12 cells, followed by further culture for 24 hours.
# TM4SF5 expression [3] = experiment: TGFβ mediated TM4SF5 expression in AML12 cells with EGFR inhibitor, Western blotting and optical microscope; assay type: cell-based, mouse
# Method: Particularly, AML12 cells were cultured in DMEM supplemented with 10% FBS, which were then washed with serum-free DMEM. The cells were maintained as serum-free status for 4 hours. After serum starvation, the cells were treated with DMSO (control vehicle) and AG1478 (100 nM) 30 minutes before the treatment of TGFβ (2.5 ng/ml) in order to inhibit EGFR signaling. After the treatment of TGFβ (R&D systems, Minneapolis, Minn., USA), the cells were further cultured for 24 more hours.
# Western blotting was performed with antibodies against phospho-Y^1173EGFR (Santa Cruz Biotechnology, Santa Cruz, Calif.), phospho-Y^992EGFR (Cell Signaling Technology, Danvers, Mass.), phospho-Erk (Cell Signaling Technology, Danvers, Mass.), phospho-Smad2 (Cell Signaling Technology, Danvers, Mass.), phospho-Smad3 (Cell Signaling Technology, Danvers, Mass.), TM4SF5, and α-tubulin (Sigma-Aldrich) to investigate the expressions of TM4SF5 and EGFR signal transduction system related factors.
# (2) AML12 cells were cultured in DMEM supplemented with 10% FBS, which were then washed with serum-free DMEM. The cells were maintained as serum-free status for 4 hours. After serum starvation, the cells were treated with various inhibitors such as PD98059 (MEK inhibitor, LC Laboratories, Woburn, Mass.), LY294002 (PI3K inhibitor), PP2, PP3 (src inhibitor, Tocris Cookson, Avonmouth, UK), Rapamycin (mTOR inhibitor), GF109203 (PKC inhibitor, Calbiochem, San Diego, Calif.), AG1478 (EGFR inhibitor, LC Laboratories, Woburn, Mass.), U0126 (ERK1/2 inhibitor, LC Laboratories, Woburn, Mass.), SP600125 (Jnk inhibitor), and Y-27632 (ROCK inhibitor, Calbiochem, San Diego, Calif.) 30 minutes before the treatment of TGFβ (2.5 ng/ml). Then, TM4SF5 expression was examined. As a result, TM4SF5 expression was reduced by AG1478 under the near death condition (the condition in which phospho-Y^397 FAK level was high) (FIG. 8).
# Chang cells [4] = experiment: TM4SF5 expression and EGFR signal transduction system over treatment times of TGFβ and EGF in Chang cells; assay type: cell-based, human; conditions: TGFβ (2.5 ng/ml) and EGF (50 ng/ml), 0, 0.5, 1, 2, and 24 hours
# Method: Chang cells were cultured in DMEM supplemented with 10% FBS, which were then washed with serum-free DMEM. The cells were maintained as serum-free status for 4 hours. […] Then, TM4SF5 expression and EGFR signal transduction system were investigated.
# Chang cells [5] = experiment: TM4SF5 expression and EMT induced by TGFβ in Chang cells; assay type: cell-based, human
# Method: (§1) AML12 cells (ATCC, USA), the normal mouse hepatocytes, and Chang cells (ATCC, USA), the normal human hepatocytes, cultured in DMEM supplemented with 10% FBS were washed with serum-free DMEM, which were maintained as serum-free status for 4 hours. After serum starvation, the cells were treated with TGFβ (2.5 ng/ml), followed by further culture for 24 hours. At last, cell extracts were prepared.
# Chang cells, the normal human hepatocytes, were treated with TGFβ, followed by immunoblotting. As a result, it was confirmed that TM4SF5 expression was induced. From the comparison of cellular morphology, it was also confirmed that cell-cell contact became weak, compared with the control treated with vehicle (PBS) only without TGFβ, and EMT was induced, and the expression of α-SMA, the mesenchymal cell marker, was increased (FIG. 4).
# In addition, Chang cells, the normal human hepatocytes, were treated with TGFβ at different concentrations of 0, 2.5 and 5 ng/ml, followed by immunoblotting. […] EGFR signal transduction system was also activated, confirmed by using antibodies against phospho-Y^1173EGFR (Santa Cruz Biotechnology, Santa Cruz, Calif.), EGFR (Santa Cruz Biotechnology, Santa Cruz, Calif.), phospho-Erk, phospho-Smad2, phospho-Smad3 (Cell Signaling Technology, Danvers, Mass.), and α-tubulin (Sigma-Aldrich) (FIG. 5).
# human TM4SF5 promoter = experiment: Luciferase reporter gene assay with TM4SF5 promoter in Huh7, HepG2 and SNU16mAd cells; assay type: cell-based
# Method: Particularly, Huh7 and HepG2 (liver cancer cell lines), and SNU16mAd (stomach cancer cell line) were transfected with pBabe-galactosidase (Choi et al., 2009, Blood 113:1845-1855) containing pGL3-human TM4SF5 promoter prepared by inserting genomic fragment of TM4SF5 upstream promoter located approximately −3 kb ahead of TM4SF5 gene in pGL3 luciferase vector (Promega), followed by harvesting 24 hours later. Then, luciferase activity of the reporter gene was measured. Infection efficiency was confirmed by measuring beta-galactosidase activity, followed by quantification after normalization. […] Unlike pGL3-TM4SF5 that was the construct harboring TM4SF5 promoter region whose transcriptional activity could be confirmed, pGL3-basic was the construct without the promoter, meaning transcription would not be activated, which was thereby used as the control (FIG. 2).
# AML12 cells = experiment: TM4SF5 expression and EMT induced by TGFβ in AML12 cells; assay type: cell-based, mouse
# Method: as §1
# TM4SF5 protein expression was increased in those extracts, confirmed by immunoblotting and immunofluorescence assay using antibodies against pSmad3, pSmad2 (Cell Signaling Technology, Danvers, Mass.), vimentin (Sigma-Aldrich), E-adherin (Santa Cruz Biotechnology, Santa Cruz, Calif.), and TM4SF5 (Sin-Ae Lee et al., J. Clin. Invest. 2008 April; 118(4):1354-66). The nucleotide sequence of TM4SF5 antibody was confirmed by using pGEX-5X2 vector (Amersham) comprising c-terminal of TM4SF5 (the region from the 229th nucleotide residue to the 594th nucleotide residue, digested with EcoR1). To obtain recombinant protein induced by IPTG from DH5a bacteria, PBS comprising 0.3% SDS and protease inhibitor was used. After protein extraction, antigen was extracted from electrophoresed SDS gel, followed by immunizing mice with that. After immune response was induced three times in total, serum was obtained from the mice. Immunoreactivity of the serum with recombinant protein and animal cell extract was investigated.
# As a result, as shown in FIG. 3 and FIG. 5, when AML12 cells were treated with TGFβ, TM4SF5 expression was increased. In addition, EMT (epithelial-mesenchymal transition) was induced by the increases of α-SMA and vimentin and the decrease of E-cadherin. It was also confirmed by immunoblotting that the expression of E-cadherin, which is important for cell-cell contact, was reduced, but the expression of vimentin, the mesenchymal cell marker, was increased. In the meantime, according to immunofluorescence assay, the cells were placed on cover glass coated with fibronectin (10 μg/ml) to perform immunofluorescence staining, followed by treating with TGFβ. Upon completion of immunofluorescence staining with vimentin antibody, the cover glass was observed under fluorescence microscope. As a result, vimentin expression was increased, compared with the control treated with vehicle (PBS, phosphate saline buffer) only without TGFβ, and EMT was confirmed by dispersed cell pattern (FIG. 3).
# [6] = Chang cells, 0, 2.5 and 5 ng/ml
Compound,TGFβ mediated TM4SF5 expression (TM4SF5 expression [1]),TM4SF5 expression mediated by conditioned medium of LX2 cells (TM4SF5 expression [2]),"cell-cell contact (TGFβ mediated cell dispersion, cell morphology change) (TM4SF5 expression [3]; AML12 cells, AG1478 100 nM, TGFβ 2.5 ng/ml, optical microscope)","TGFβ mediated TM4SF5 expression (TM4SF5 expression [3]; AML12 cells, inhibitor 30 minutes before TGFβ (2.5 ng/ml), AG1478 100 nM, 24 hours)",TGFβ signaling Smad2 activation (TM4SF5 expression [3]; suppression of EGFR activation by AG1478),EGFR signal transduction system activation and TM4SF5 expression over time (Chang cells [4]),α-SMA expression (Chang cells [5]; Chang cells),EGFR signal transduction system (Chang cells [5]; [6]),TM4SF5 protein expression at different TGFβ concentrations (Chang cells [5]; [6]),"cell-cell contact (Chang cells [5]; Chang cells, compared with vehicle (PBS))","TM4SF5 expression (Chang cells [5]; Chang cells, immunoblotting)",transcriptional activity of TM4SF5 promoter region (luciferase) (human TM4SF5 promoter),"EMT (epithelial-mesenchymal transition) (AML12 cells; TGFβ 2.5 ng/ml, 24 hours)","TM4SF5 expression (AML12 cells; TGFβ 2.5 ng/ml, 24 hours)",E-cadherin expression (AML12 cells; immunoblotting),vimentin expression (AML12 cells; immunoblotting)
COc1cc2ncnc(Nc3cccc(Cl)c3)c2cc1OC [AG1478],reduced,reduced; also recorded: not increased any more,maintained; also recorded: suppressed,decreased; also recorded: reduced; also recorded: suppressed,did not affect,–,–,–,–,–,–,–,–,–,–,–
"TGFβ: transforming growth factor β, a multi-functional cytokine (R&D systems)",–,–,–,–,–,induced continuously,increased,activated,increased TGFβ dose-dependently,became weak,induced,increased,induced,increased,reduced,increased
